Entries after “also recorded” stand apart in the source; their conditions may differ.
Key:
E. coli and K. oxytoca = test: P-AST species-pair interaction on antibiotic resistance (logistic regression, HSAP/UP); type: cell-based, Escherichia coli; Klebsiella oxytoca; details: E. coli and K. oxytoca together v. expected from each species alone (HSAP/UP)
Method: (§1) The Pooled Antibiotic Sensitivity Test (P-AST) is permitting the organisms identified to grow in the presence of antibiotics and measuring the minimum concentration of antibiotic to inhibit growth. Antibiotic susceptibility testing is performed when at least a single organism within a pool of organisms reaches a certain threshold, (e.g., at least 3,000 cells/ml, at least 5,000 cells/ml, at least 10,000 cells/ml, etc.) and can grow in the presence of the antibiotic in the assay within the time of testing. (Note: 10,000 cells/ml is equivalent to 10,000 CFU/ml.) The present invention is not limited to a 10,000 cells/mL threshold. These pools of organism(s) are inoculated into growth medium then placed onto an antibiotic laden “spec plate” that is then incubated and analyzed for growth. The breakpoints are derived from the CLSI breakpoints.
(§2) P-AST was performed by aliquoting 1 mL of patient urine specimen into a 1.7 mL microcentrifuge tube. After centrifugation, the supernatant was aspirated and discarded, leaving approximately 100 or 50 μL (minimum volume left above pellet created from centrifugation) of patient sample in the microcentrifuge tube. […] Optical density of samples was then read on a DensiCHEK plate reader. […] A spectrophotometer (plate reader) is used to measure optical density of the samples in wells of antibiotics and inoculum in order to determine if there is growth in a well. […]

[1] = system: E. coli and S. agalactiae; test: as above; type: cell-based, Escherichia coli; Streptococcus agalactiae; details: E. coli and S. agalactiae together v. expected from each species alone (HSAP/UP)
Method: as §1
(§3) P-AST was performed by aliquoting 1 mL of patient urine specimen into a 1.7 mL microcentrifuge tube. After centrifugation, the supernatant was aspirated and discarded, leaving approximately 100 or 50 μL (minimum volume left above pellet created from centrifugation) of patient sample in the microcentrifuge tube. One mL of Mueller Hinton Growth Media was then aliquoted into the patient sample in the microcentrifuge tube and the tubes were incubated at 35° C. in a non-CO2 incubator for 6 hours. Non-inoculated liquid MH-media is incubated as the negative control to confirm the media used is not contaminated. Those samples that reached a minimum threshold of 10,000 cells/mL were then diluted by aliquoting 0.5 mL of sample into a 50 mL conical tube containing Mueller Hinton Growth Media (in this example, the dilution was 1:60, e.g., 500 μL was added to 29.5 mL). 96-well plates pre-loaded with antibiotics were then inoculated with diluted samples and incubated along with control plates for 12-16 hours at 35° C. in a single layer. Optical density of samples was then read on a DensiCHEK plate reader. The DensiCHEK instrument is used to measure the concentration of turbid samples considered positive because PCR-ID result was >=10,000 cells/mL. The turbid samples were diluted/normalized to the same concentration and then added to a volume of liquid, e.g., 29.5 mL of liquid MH-media. A spectrophotometer (plate reader) is used to measure optical density of the samples in wells of antibiotics and inoculum in order to determine if there is growth in a well. The present invention is not limited to a concentration of 10,000 cells/mL.
Interactions between pairs of bacterial species were investigated using a logistic regression model to predict resistance in the presence of specific bacterial species. Bacterial species that tested positive in at least 30 samples were considered in the regression model: these 16 species were A. schaalii, A. urinae, A. omnicolens, CoNS, C. riegelii, E. faecalis, E. coli, K. oxytoca, K. pneumoniae, M. morganii, P. mirabilis, P. aeruginosa, S. aureus, S. agalactiae, U. urealyticum, VGS. Backward stepwise model selection was performed on the model with all main effects and all pairwise interactions using an enter significance level of α=0.10 and an exit significance level of α=0.05 to obtain the best fitting model. This model was used to predict resistance rates when a specific organism was present or when a specific pair of organisms were present.
Using the logistic regression model described above, the resistance rate for a pair of species was compared to the resistance rates for each species alone. […]

[2] = system: bacterial organisms present in patient urine sample; test: Antibiotic Resistance (ABR) assay utilizing liquid growth medium; type: cell-based; details: for Blanked (OD reading): blanked with Na-Azide well; for Mean (OD reading): raw OD600 of well; for Result (Resistant/Sensitive): threshold OD600 of 0.065
Method: Urine samples suitable for processing with this assay are collected, transported, and stored using BD Vacutainer tubes or other suitable leak-proof sterile containers. Urine samples may be held at room temperature for 48 hours before test results are compromised.
Antibiotic stocks are stored at 2-8° C. and protected from direct sunlight. Prepared antibiotic stock solutions were aliquoted into a 96-deep well plate (ThermoFisher Scientific) to form a 50× Antibiotic Source Plate and then diluted 1:5 to form a 10× Antibiotic Source Plate, as shown in FIG. 12 where each well is identified by antibiotic name and concentration (μg/mL; 10× final concentration). […] One well was assigned sodium azide to ensure no bacterial growth would be observed in that well.
Twenty microliters of each antibiotic solution were aliquoted into the pre-determined wells of a 96-well microplate (VIS 96/F-PS, Eppendorf) from the 10× Antibiotic Source Plate to create ABR testing plates for inoculation. These ABR testing plates were allowed to sit for up to 24 hours before use at 2-8° C. in the dark.
At the time of testing, urine samples were centrifuged to concentrate any bacterial cells and then mixed with liquid Mueller-Hinton medium and incubated for 6-16 hours at 37° C. After this initial incubation, the sample is diluted to 0.5-0.6 McF in saline and then 500 μl of that suspension was added to […] of Mueller-Hinton medium. One-hundred and eighty microliters of the diluted sample is then aliquoted to each well of the ABR microplate already containing 10× antibiotic solution, bringing all of the antibiotics to the desired final concentration. The plate is then sealed and incubated for 12-16 hours at 37° C.
After incubation, the plate was removed from the incubator and carefully uncovered and the OD600 was determined for each appropriate well by spectrophotometer. Five separate measurements were taken of each well on a plate and the mean OD600 measurement calculated for each well.
Controls are depicted in Table 10.
The raw data was then “blanked” using the measurement obtained from the Na-Azide well, as depicted in Table 14.
To determine whether bacterial organisms present in the patient samples were resistant or sensitive to a particular antibiotic at a certain concentration, blanked OD readings were compared to a threshold OD600 of 0.065 (Table 15). An OD measurement greater than or equal to this threshold was designated Resistant (R) meaning bacterial organisms present in patient sample were resistant to that particular antibiotic at that certain concentration. Any OD measurement less than this threshold was designated Sensitive (S) meaning bacterial organisms present in patient sample were sensitive to that particular antibiotic at that certain concentration.

[3] = system: Coagulase-negative Staphylococcus (CoNS) and S. agalactiae; details: CoNS and S. agalactiae together v. expected from each species alone (HSAP/UP)
Method: (§4) The Pooled Antibiotic Sensitivity Test (P-AST) is permitting the organisms identified to grow in the presence of antibiotics and measuring the minimum concentration of antibiotic to inhibit growth. Antibiotic susceptibility testing is performed when at least a single organism within a pool of organisms reaches a certain threshold, (e.g., at least 3,000 cells/ml, at least 5,000 cells/ml, at least 10,000 cells/ml, etc.) and can grow in the presence of the antibiotic in the assay within the time of testing. […] These pools of organism(s) are inoculated into growth medium then placed onto an antibiotic laden “spec plate” that is then incubated and analyzed for growth. The breakpoints are derived from the CLSI breakpoints.
P-AST was performed by aliquoting 1 mL of patient urine specimen into a 1.7 mL microcentrifuge tube. After centrifugation, the supernatant was aspirated and discarded, leaving approximately 100 or 50 μL (minimum volume left above pellet created from centrifugation) of patient sample in the microcentrifuge tube. One mL of Mueller Hinton Growth Media was then aliquoted into the patient sample in the microcentrifuge tube and the tubes were incubated at 35° C. in a non-CO2 incubator for 6 hours. […] Those samples that reached a minimum threshold of 10,000 cells/mL were then diluted by aliquoting 0.5 mL of sample into a 50 mL conical tube containing Mueller Hinton Growth Media (in this example, the dilution was 1:60, e.g., 500 μL was added to 29.5 mL). 96-well plates pre-loaded with antibiotics were then inoculated with diluted samples and incubated along with control plates for 12-16 hours at 35° C. in a single layer. Optical density of samples was then read on a DensiCHEK plate reader. The DensiCHEK instrument is used to measure the concentration of turbid samples considered positive because PCR-ID result was >=10,000 cells/mL. The turbid samples were diluted/normalized to the same concentration and then added to a volume of liquid, e.g., 29.5 mL of liquid MH-media. A spectrophotometer (plate reader) is used to measure optical density of the samples in wells of antibiotics and inoculum in order to determine if there is growth in a well.
Interactions between pairs of bacterial species were investigated using a logistic regression model to predict resistance in the presence of specific bacterial species. Bacterial species that tested positive in at least 30 samples were considered in the regression model: these 16 species were A. schaalii, A. urinae, A. omnicolens, CoNS, C. riegelii, E. faecalis, E. coli, K. oxytoca, K. pneumoniae, M. morganii, P. mirabilis, P. aeruginosa, S. aureus, S. agalactiae, U. urealyticum, VGS. […]

[4] = system: bacteria detected in patient urine specimens; test: Pooled Antibiotic Susceptibility Testing (P-AST) of urine specimens, polymicrobial v. monomicrobial (logistic regression); type: cell-based; details: urine specimens, 95% confidence interval in parentheses
From the text: The present invention describes Pooled Antibiotic Susceptibility Testing (P-AST), which involves simultaneously growing all detected bacteria together in the presence of antibiotics and then measuring susceptibility. […] Urine specimens were obtained from patients presenting with UTI-like symptoms to 37 urology clinics. The odds of resistance were estimated for 18 antibiotics relative to increasing numbers of bacterial species in a specimen.
The following study combines data from two studies of antibiotic resistance patterns in elderly patients presenting with symptoms consistent with a UTI. […] All subjects met the following inclusion and exclusion criteria. Inclusion criteria included: symptoms of acute cystitis, complicated UTI, persistent UTI, recurrent UTI, prostatitis, pyelonephritis, interstitial cystitis (at any age), symptoms of other conditions at years of age, specimen volumes sufficient to permit urine culture and Multiplex Polymerase Chain Reaction (M-PCR) combined with Pooled Antibiotic Sensitivity Testing (P-AST), patient informed consented, documented times at which the specimens were collected and stabilized with boric acid in grey-top tubes. Exclusion criteria included prior participation in this study, antibiotics taken for any reason other than UTI at the time of enrollment, chronic (≥10 days) indwelling catheters, self-catheterization, and urinary diversion.
as §4

[5] = system: Coagulase-negative Staphylococcus (CoNS) and K. pneumoniae; test: P-AST species-pair interaction on antibiotic resistance (logistic regression, HSAP/UP); type: cell-based, Coagulase negative staphylococci; Klebsiella pneumoniae; details: CoNS and K. pneumoniae together v. expected from each species alone (HSAP/UP)
Method: as §1, §3
Interactions between pairs of bacterial species were investigated using a logistic regression model to predict resistance in the presence of specific bacterial species. […]

[6] = system: Coagulase-negative Staphylococcus (CoNS) and E. faecalis; test: as above; type: cell-based, Coagulase negative staphylococci; Enterococcus faecalis; details: CoNS and E. faecalis together v. expected from each species alone (HSAP/UP)
Method: as §1, §2

[7] = antibiotic 1 μg/mL, liquid medium
[8] = antibiotic 2 μg/mL, liquid medium
[9] = antibiotic 4 μg/mL, liquid medium
[10] = antibiotic 8 μg/mL, liquid medium
[11] = antibiotic 16 μg/mL, liquid medium
[12] = antibiotic 32 μg/mL, liquid medium

CO/N=C(\C(=O)N[C@@H]1C(=O)N2C(C(=O)[O-])=C(C[N+]3(C)CCCC3)CS[C@H]12)c1csc(N)n1 [Cefepime, cefepime]
change in antibiotic resistance of the pair of organisms (E. coli and K. oxytoca): decrease in resistance; also recorded: decreased odds of resistance
change in antibiotic resistance of the pair of organisms [1]: decrease in resistance; also recorded: decreased odds of resistance
Blanked (OD600 minus Na-Azide well) [2, 7]: 0.1959
Mean (OD600) [2, 7]: 0.2416
Blanked (OD600 minus Na-Azide well) [2, 8]: 0.1970
Mean (OD600) [2, 8]: 0.2427
Blanked (OD600 minus Na-Azide well) [2, 9]: 0.1960
Mean (OD600) [2, 9]: 0.2417
Blanked (OD600 minus Na-Azide well) [2, 10]: 0.1947
Mean (OD600) [2, 10]: 0.2404
Blanked (OD600 minus Na-Azide well) [2, 11]: 0.1866
Mean (OD600) [2, 11]: 0.2323
Blanked (OD600 minus Na-Azide well) [2, 12]: 0.1824
Mean (OD600) [2, 12]: 0.2281

gentamicin
change in antibiotic resistance of the pair of organisms [3]: decrease in resistance; also recorded: decreased odds of resistance
Odds Ratio of Resistance Polymicrobial v. Monomicrobial [4]: 1.17 (0.90, 1.51)
Odds Ratio of Resistance for Each Additional Species [4]: 1.01 (0.92, 1.11)
change in antibiotic resistance of the pair of organisms [5]: decrease in resistance; also recorded: decreased odds of resistance
change in antibiotic resistance of the pair of organisms [6]: decrease in resistance; also recorded: decreased odds of resistance
Blanked (OD600 minus Na-Azide well) [2, 9]: 0.0158
Mean (OD600) [2, 9]: 0.0615
Blanked (OD600 minus Na-Azide well) [2, 11]: −0.0031
Mean (OD600) [2, 11]: 0.0426
Blanked (OD reading) ([2]; antibiotic concentration 4): 0.0158
Mean (OD reading) ([2]; antibiotic concentration 4): 0.0615
Result (Resistant/Sensitive) ([2]; antibiotic concentration 4): S (Any OD measurement less than this threshold was designated Sensitive (S))
Blanked (OD reading) ([2]; antibiotic concentration 16): −0.0031
Mean (OD reading) ([2]; antibiotic concentration 16): 0.0426
Result (Resistant/Sensitive) ([2]; antibiotic concentration 16): S (Any OD measurement less than this threshold was designated Sensitive (S))
overall sensitivity of the bacteria in the sample to the antibiotic (in words) ([2]; liquid medium, Example 4 sample): sensitive
